Assay results published in article PMC5504357, “Antifungal Potential of Copper(II), Manganese(II) and Silver(I) 1,10-Phenanthroline Chelates Against Multidrug-Resistant Fungal Species Forming the Candida haemulonii Complex: Impact on the Planktonic and Biofilm Lifestyles” (Frontiers in Microbiology, 2017).

What was measured:
Candida haemulonii [1] = test: Biofilm-growing cells, XTT assay, bMIC; assay type: cell-based; settings: for GM-bMIC: geometric mean, C. haemulonii isolates, values marked * do not include LIP Ch4 (>512); for bMIC: mature biofilm, 48 h, 50% inhibition of metabolic activity
Procedure: (§1) The effect of the compounds on biofilm-growing cells was determined using the previously described microtiter-based technique (Ramage et al., [2001]). The fungi (10^6 yeast cells) were incubated for 48 h at 37°C in 96-well polystyrene microtiter plates (Corning®, Corning Incorporated, USA) containing Sabouraud-dextrose broth to accommodate biofilm formation. Following biofilm formation, the culture medium was aspirated and non-adherent cells removed by thoroughly washing the wells three times with sterile PBS (0.15 M NaCl, 0.01 M phosphate buffer, pH 7.2). Afterwards, the compounds, at the same concentrations used in the planktonic assays, were added to the wells, and the plates were incubated for further 48 h at 37°C. The metabolic activity was then evaluated using a colorimetric assay that measures the metabolic reduction of 2,3-bis (2-methoxy-4-nitro-5-sulfophenyl)-5-[(phenylamino) carbonyl]-2H-tetrazolium hydroxide (XTT; Sigma-Aldrich) to a water-soluble, brown formazan product (Peeters et al., [2008]). The biofilm MIC (bMIC) for each compound was established as the minimal concentration capable of inhibiting 50% of metabolic activity when compared to compound-free wells (Ziccardi et al., [2015]).

[2] = tested on: Candida haemulonii var. vulnera; test: Biofilm-growing cells, XTT assay, bMIC; assay type: cell-based; settings: for GM-bMIC: geometric mean, C. haemulonii var. vulnera isolates; for bMIC: mature biofilm, 48 h, 50% inhibition of metabolic activity
Procedure: as §1

Candida duobushaemulonii [3] = test: Biofilm-growing cells, XTT assay, bMIC; assay type: cell-based; settings: for GM-bMIC: geometric mean, C. duobushaemulonii isolates; for bMIC: mature biofilm, 48 h, 50% inhibition of metabolic activity
Procedure: as §1

[4] = tested on: Candida haemulonii complex; test: Biofilm-growing cells, overall across isolates; assay type: cell-based; settings: geometric mean across strains, values marked * do not include LIP Ch4 (>512)
Procedure: as §1

Candida haemulonii [5] = test: Planktonic growth, broth microdilution (CLSI M27-A3), MIC; assay type: cell-based; settings: for GM-MIC: geometric mean of three C. haemulonii isolates; for MIC: planktonic, 48 h, 37°C
Summary of the method: (§2)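 Following CLSI M27-A3, compounds were serially diluted in RPMI 1640 (0.0625-32 mg/L) and incubated with isolates at 37°C for 48 h. Visual reading gave the MIC as the lowest growth-free concentration, and MICs were pooled as a geometric mean over isolates; inocula came from 48 h Sabouraud-dextrose cultures.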

[6] = tested on: Candida haemulonii var. vulnera; test: as above; assay type: cell-based; settings: for GM-MIC: geometric mean of three C. haemulonii var. vulnera isolates; for MIC: planktonic, 48 h, 37°C
Summary of the method: as §2

Candida duobushaemulonii [7] = test: as above; assay type: cell-based; settings: for GM-MIC: geometric mean of three C. duobushaemulonii isolates; for MIC: planktonic, 48 h, 37°C
Summary of the method: as §2

C. haemulonii complex = test: Planktonic growth, overall across all nine isolates; assay type: cell-based, Candida haemulonii complex; settings: geometric mean across all nine strains; for MIC: in μM, read-out: Overall GM-MIC
Summary of the method: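 CLSI M27-A3 microdilution, RPMI 1640, 0.0625-32 mg/L; compounds from DMSO, metal salts and phen in water; 37°C, 48 h; MIC = no visible growth. Overall value: GM-MIC over nine isolates.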

A549 cells = test: Mammalian cell toxicity (MTT assay) and selectivity index; assay type: cell-based, Human; settings: MTT, 48 h incubation
Summary of the method: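 A549 cells were exposed to compounds (0.0313–512 μg/mL) in DMEM for 48 h at 37 °C, 5% CO2. Viability was measured by MTT (3 h, dark), with formazan dissolved in DMSO and read at 450 nm. CC50 was derived, and SI calculated as A549 CC50 divided by C. haemulonii complex GM-MIC.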

SMILES: O.O.O.O.O=C([O-])c1cccc(C(=O)[O-])c1.O=C([O-])c1cccc(C(=O)[O-])c1.[Mn+2].[Mn+2].c1cnc2c(c1)ccc1cccnc12.c1cnc2c(c1)ccc1cccnc12.c1cnc2c(c1)ccc1cccnc12 [compound 10, [Mn2(isoph)2(phen)3].4H2O]
- GM-bMIC (Candida haemulonii [1]): 16^* mg/L
- bMIC (Candida haemulonii [1]; isolate LIP Ch4): >512 mg/L
- bMIC (Candida haemulonii [1]; isolate LIP Ch7): 8 mg/L
- bMIC (Candida haemulonii [1]; isolate LIP Ch14): 32 mg/L
- GM-bMIC [2]: 12.70 mg/L
- bMIC ([2]; isolate LIP Ch5): 32 mg/L
- bMIC ([2]; isolate LIP Ch9): 8 mg/L
- bMIC ([2]; isolate LIP Ch13): 8 mg/L
- GM-bMIC (Candida duobushaemulonii [3]): 16 mg/L
- bMIC (Candida duobushaemulonii [3]; isolate LIP Ch1): 16 mg/L
- bMIC (Candida duobushaemulonii [3]; isolate LIP Ch6): 16 mg/L
- bMIC (Candida duobushaemulonii [3]; isolate LIP Ch8): 16 mg/L
- Overall GM-bMIC ([4]; in μM): 13.96 µM
- Overall GM-bMIC [4]: 14.67 mg/L
- GM-MIC (Candida haemulonii [5]): 6.35 µg/mL
- MIC (Candida haemulonii [5]; isolate LIP Ch4): 8 µg/mL
- MIC (Candida haemulonii [5]; isolate LIP Ch7): 8 µg/mL
- MIC (Candida haemulonii [5]; isolate LIP Ch12): 4 µg/mL
- GM-MIC [6]: 4 µg/mL
- MIC ([6]; isolate LIP Ch5): 4 µg/mL
- MIC ([6]; isolate LIP Ch9): 4 µg/mL
- MIC ([6]; isolate LIP Ch11): 4 µg/mL
- GM-MIC (Candida duobushaemulonii [7]): 6.35 µg/mL
- MIC (Candida duobushaemulonii [7]; isolate LIP Ch1): 8 µg/mL
- MIC (Candida duobushaemulonii [7]; isolate LIP Ch6): 8 µg/mL
- MIC (Candida duobushaemulonii [7]; isolate LIP Ch8): 4 µg/mL
- Overall GM-MIC (C. haemulonii complex): 5.44 µg/mL
- MIC (C. haemulonii complex): 5.15 µM
- A549 (CC50) (A549 cells): 255.87 µg/mL

SMILES: O.O.O.O.O.O.O.O.O.O.O.O.O.O.O.O.O=C([O-])c1cccc(C(=O)[O-])c1.O=C([O-])c1cccc(C(=O)[O-])c1.[Mn+2].[Mn+2].c1cnc2c(c1)ccc1cccnc12.c1cnc2c(c1)ccc1cccnc12.c1cnc2c(c1)ccc1cccnc12.c1cnc2c(c1)ccc1cccnc12.c1cnc2c(c1)ccc1cccnc12 [compound 11, {[Mn(phen)2(H2O)2]}2(isoph)2(phen).12H2O]
- GM-bMIC (Candida haemulonii [1]): 16^* mg/L
- bMIC (Candida haemulonii [1]; isolate LIP Ch4): >512 mg/L
- bMIC (Candida haemulonii [1]; isolate LIP Ch7): 8 mg/L
- bMIC (Candida haemulonii [1]; isolate LIP Ch14): 32 mg/L
- GM-bMIC [2]: 8 mg/L
- bMIC ([2]; isolate LIP Ch5): 16 mg/L
- bMIC ([2]; isolate LIP Ch9): 4 mg/L
- bMIC ([2]; isolate LIP Ch13): 8 mg/L
- GM-bMIC (Candida duobushaemulonii [3]): 6.35 mg/L
- bMIC (Candida duobushaemulonii [3]; isolate LIP Ch1): 8 mg/L
- bMIC (Candida duobushaemulonii [3]; isolate LIP Ch6): 8 mg/L
- bMIC (Candida duobushaemulonii [3]; isolate LIP Ch8): 4 mg/L
- Overall GM-bMIC [4]: 8.72 mg/L
- GM-MIC (Candida haemulonii [5]): 2.52 µg/mL
- MIC (Candida haemulonii [5]; isolate LIP Ch4): 4 µg/mL
- MIC (Candida haemulonii [5]; isolate LIP Ch7): 2 µg/mL
- MIC (Candida haemulonii [5]; isolate LIP Ch12): 2 µg/mL
- GM-MIC [6]: 2.52 µg/mL
- MIC ([6]; isolate LIP Ch5): 4 µg/mL
- MIC ([6]; isolate LIP Ch9): 2 µg/mL
- MIC ([6]; isolate LIP Ch11): 2 µg/mL
- GM-MIC (Candida duobushaemulonii [7]): 2.52 µg/mL
- MIC (Candida duobushaemulonii [7]; isolate LIP Ch1): 2 µg/mL
- MIC (Candida duobushaemulonii [7]; isolate LIP Ch6): 4 µg/mL
- MIC (Candida duobushaemulonii [7]; isolate LIP Ch8): 2 µg/mL
- Overall GM-MIC (C. haemulonii complex): 2.52 µg/mL
- MIC (C. haemulonii complex): 1.54 µM
- A549 (CC50) (A549 cells): 251.76 µg/mL
